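In this assay, cells in 96-well plates receive the compound at five concentrations for 48 hours. Endpoints are linearly interpolated between the surrounding concentrations. TGI: concentration producing complete growth inhibition.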
How the values were obtained:
Test in all cases: NCI-60 cell line screen, 48 h
[1] = system: HL-60(TB) leukemia
[2] = system: IGROV1 ovarian
[3] = system: M14 melanoma
[4] = system: MOLT-4 leukemia
[5] = system: NCI-H23 lung
[6] = system: NCI-H460 lung
[7] = system: NCI/ADR-RES ovarian
[8] = system: OVCAR-3 ovarian
[9] = system: OVCAR-5 ovarian
[10] = system: SF-539 CNS
[11] = system: SK-MEL-2 melanoma
[12] = system: TK-10 renal
[13] = system: UACC-62 melanoma
[14] = system: SF-268 CNS
[15] = system: U251 CNS
[16] = system: NCI-H226 lung

SMILES | TGI [1] [µM] | TGI [2] [µM] | TGI [3] [µM] | TGI [4] [µM] | TGI [5] [µM] | TGI [6] [µM] | TGI [7] [µM] | TGI [8] [µM] | TGI [9] [µM] | TGI [10] [µM] | TGI [11] [µM] | TGI [12] [µM] | TGI [13] [µM] | TGI [14] [µM] | TGI [15] [µM] | TGI [16] [µM]
NC(N)=N/N=C\c1c(-c2cccc([N+](=O)[O-])c2)nc2sccn12 | > 100 | 33.6 | 5.93 | 5 | 32.1 | 78.7 | > 100 | 6.29 | > 100 | 54.9 | 6.49 | 4.53 | 79 |  |  | 
O=C(O)CN1CCSc2ccccc2CN(CC(=O)O)CCSc2ccccc2C1 | > 100 | > 100 | > 100 |  | > 100 | > 100 |  | > 100 | > 100 | > 100 | > 100 | > 100 | > 100 | > 100 | > 100 | 
C#CCN(Cc1ccc2nc(-c3ccccc3)c(Cl)nc2c1)c1ccc(F)cc1 | 87.2 | > 100 | > 100 | 44.6 | > 100 | > 100 | > 100 | > 100 | > 100 | > 100 | > 100 | > 100 | > 100 | > 100 | > 100 | 
C[N+]1(C)C2CC(OC(=O)C(CO)c3ccccc3)CC1C1OC12 (centres undefined) | > 100 | > 100 | > 100 | > 100 | > 100 |  | > 100 | > 100 | > 100 | > 100 | > 100 | > 100 | > 100 |  | > 100 | > 100
O=C(CC(NC(=O)OCc1ccccc1)C(=O)NC1Cc2ccccc2C1=O)OCc1ccccc1 (centres undefined) |  | > 100 | > 100 | > 100 | > 100 | > 100 | > 100 | > 100 | > 100 | > 100 | > 100 | > 100 | > 100 | > 100 | > 100 | > 100
Cc1cn2cc(-c3cccs3)nc2s1 | > 100 | > 100 | > 100 | > 100 | > 100 | > 100 |  | > 100 | > 100 | > 100 | > 100 | > 100 | > 100 | > 100 | > 100 | > 100
N/N=c1/nc2n(c3ncccc13)C=CNN2 | > 100 | > 100 |  | > 100 | > 100 | > 100 |  | > 100 | > 100 | > 100 | > 100 | > 100 | > 100 | > 100 | > 100 | > 100
CSC(=S)CC(O)[C@@H]1CC2c3ccccc3C1c1ccccc12 (some centres undefined) | 7.96 | 33.1 | 27 | 8.24 | 22.2 | 40.8 | 54.7 | 22.2 | 33.4 | 37.8 |  | 30.7 | 25.4 | 45.4 | 13 | 79.1
CCN(CC)C(=O)CCn1ccc(=O)[nH]c1=O | > 100 | > 100 | > 100 | > 100 | > 100 | > 100 |  | > 100 | > 100 | > 100 | > 100 | > 100 | > 100 | > 100 | > 100 | > 100
O=C(Cc1ccccc1)NN1C(=O)C(Cl)C1c1ccc(Cl)cc1 (centres undefined) | > 100 | > 100 | > 100 | > 100 | > 100 | > 100 |  | > 100 | > 100 |  | > 100 | > 100 | > 100 | > 100 | > 100 | > 100
COCCN(C(=O)c1ccccc1)C1CCC2(SCCS2)c2[nH]c3ccccc3c21 (centres undefined) | 55.2 | > 100 |  | 69.4 | > 100 | > 100 | > 100 | > 100 | > 100 | > 100 |  | > 100 |  | > 100 | > 100 | > 100
N#Cc1cc2c(cc1C#N)SCCSCCCSCCS2 |  | 97.8 | > 100 | > 100 | 38.3 | > 53.8 | > 100 | > 100 | > 100 | 43.2 | 42.8 | 14.3 | 27.6 | 29.9 | 28.2 | > 84.8
COc1cc2c(cc1OS(C)(=O)=O)N=C[C@@H]1CCCN1C2=O | > 100 | > 100 | > 100 | > 100 | > 100 | > 100 |  | > 100 |  | > 100 | > 100 | > 100 | > 100 | > 100 | > 100 | > 100
O=C(c1ccc2ccccc2c1)C1(I)S(=O)(=O)OCCOS1(=O)=O | > 100 |  | > 100 | > 100 | > 100 | > 100 | > 100 | > 100 | > 100 |  | > 100 | > 100 |  |  | > 100 | 
CC(=O)N1C=Cc2c(c(C)c3c([nH]c4ccccc43)c2C)C1 | > 100 | 17.9 | 20.9 | > 100 | 20.4 |  | 8.41 | 4.55 | 24 | 18.8 | 27.2 | 24.5 |  | 32.6 | 19.4 | 31.9
CCNC1=C(NC(=O)c2ccc(F)cc2)C(=O)c2ccccc2C1=O | > 100 | > 100 | 63.5 | > 100 | > 100 | > 100 | > 100 | 85.7 | > 100 | > 100 |  | > 100 | > 100 | > 100 |  | > 100

— PubChem BioAssay (NCI)
